Reference: US9115133B2, “Substituted fused tricyclic compounds, compositions and medicinal applications thereof” (Advinus Therapeutics Limited, priority 2011, dated 2015)

The compounds below were run against T1, Recombinant JAK1 (Amino acids 850-1154) (Homo sapiens, UniProt P23458) (assay: Kinase-Glo Luminescent Kinase Assay, recombinant JAK1). Conditions: 200 μg/ml Poly Glu-Tyr (4:1), ATP 1 uM, 90 min room temperature, luminescence.
T1 construct: Recombinant JAK1 (Amino acids 850-1154; NM_002227.2); made in house; host or cells: baculovirus expression system (Bac-to-Bac)
T1 sequence (P23458 850-1154): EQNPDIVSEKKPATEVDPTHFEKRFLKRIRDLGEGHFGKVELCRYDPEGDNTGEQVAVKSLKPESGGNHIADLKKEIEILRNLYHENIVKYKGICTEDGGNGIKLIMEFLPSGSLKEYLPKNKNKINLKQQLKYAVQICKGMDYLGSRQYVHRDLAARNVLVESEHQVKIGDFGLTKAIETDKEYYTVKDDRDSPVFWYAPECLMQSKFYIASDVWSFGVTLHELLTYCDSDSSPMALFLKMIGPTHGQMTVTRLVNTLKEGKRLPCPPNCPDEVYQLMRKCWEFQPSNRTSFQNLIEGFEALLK
Type: biochemical
Description: (§1) Recombinant JAK1 (Amino acids 850-1154; NM_002227.2), JAK2 (Amino acids 808-1132; NM_004972.3) and JAK3 (Amino acids 781-1124; NM_000215.3) used in the studies were expressed using Invitrogen's Bac-to-Bac baculovirus expression system according to manufacturer's instructions. Adenosine 5′-triphosphate was obtained from Sigma Aldrich chemicals (Cat # A7699). Poly Glu-Tyr (4:1) sodium salt was obtained from Sigma Aldrich (Cat # P0275), Kinase Glo® Luminescent Kinase assay kit was obtained from Promega (Cat # V6713) Kinase activity was assessed by Promega Kinase-Glo® Luminescent Kinase Assay kit using 200 μg/ml Poly Glu-Tyr (4:1) as substrate and ATP at 1 uM concentration. The reactions were carried out in 384 well plates in total reaction volume of 20 uL. Reaction mixtures contained 50 mM HEPES pH 7.4, 5 mM MgCl2, 1 mM DTT, 0.01% BSA, 0.01% Tween 20. Kinase was pre-incubated with compounds or 1% DMSO for 5 min before addition of substrate and ATP to check for inhibition. Kinase reactions were carried out at room temperature for 90 min. The reactions were stopped by adding 5 μl of Kinase Glo® reagent & 10 μl of reaction mixture followed by measuring luminescence. The luminescent signal is correlated with the amount of ATP present at the end of kinase reaction and is inversely correlated with the amount of kinase activity. For each data point, % inhibition is calculated based on uninhibited reaction (without compound) which is considered as 100% activity over no enzyme or substrate controls. Dose response data is then fit using a four parameter logistic equation using Graph-pad Prism 5 software to determine inhibition constant 50 (IC50).

Compared with `CC(C)CS(=O)(=O)N1CCCC(c2ccnc3cnc4[nH]ccc4c23)C1` (stereo not shown) [Ex. 8, 9-(1-isobutylsulfonyl-3-piperidyl)-3H-pyrrolo[3,2-f][1,7]naphthyridine], `CC(C)C(=O)N1CCCC(c2ccnc3cnc4[nH]ccc4c23)C1` (stereo not shown) [Ex. 3, 2-methyl-1-[3-(3H-pyrrolo[3,2-f][1,7]naphthyridin-9-yl)-1-piperidyl]propan-1-one] is higher in IC50: 1 to 20 nM for the first, greater than 20 nM for the second.

`O=C(C1CC1)N1CCCC(c2ccnc3cnc4[nH]ccc4c23)C1` (stereo not shown) [Ex. 2, cyclopropyl-[3-(3H-pyrrolo[3,2-f][1,7]naphthyridin-9-yl)-1-piperidyl]methanone] and `CC(C)(C)OC(=O)N1CCC(c2ccnc3cnc4[nH]ccc4c23)C1` (stereo not shown) [Comp. 50, tert-butyl 3-(3H-pyrrolo[3,2-f][1,7]naphthyridin-9-yl)pyrrolidine-1-carboxylate] fall in the same range of IC50: 1 to 20 nM for the first, 1 to 20 nM for the second.

`CN(C(=O)CC1CC1)C1CCCN(c2ccnc3cnc4[nH]ccc4c23)C1` (stereo not shown) [Ex. 63, 2-cyclopropyl-N-methyl-N-[1-(3H-pyrrolo[3,2-f][1,7]naphthyridin-9-yl)-3-piperidyl]acetamide] and `O=C(NC1CC1)C1CCN(c2ccnc3cnc4[nH]ccc4c23)CC1` [Ex. 76, N-cyclopropyl-1-(3H-pyrrolo[3,2-f][1,7]naphthyridin-9-yl)piperidine-4-carboxamide] cannot be ordered by IC50: greater than 20 nM for the first, greater than 20 nM for the second.

The compounds below were run against T2, Recombinant JAK3 (Amino acids 781-1124) (Homo sapiens, UniProt P52333) (assay: Kinase-Glo Luminescent Kinase Assay, recombinant JAK3). Conditions: 200 μg/ml Poly Glu-Tyr (4:1), ATP 1 uM, 90 min room temperature, luminescence.
T2 construct: JAK3 (Amino acids 781-1124; NM_000215.3); made in house; host or cells: baculovirus expression system (Bac-to-Bac)
T2 sequence (P52333 781-1124): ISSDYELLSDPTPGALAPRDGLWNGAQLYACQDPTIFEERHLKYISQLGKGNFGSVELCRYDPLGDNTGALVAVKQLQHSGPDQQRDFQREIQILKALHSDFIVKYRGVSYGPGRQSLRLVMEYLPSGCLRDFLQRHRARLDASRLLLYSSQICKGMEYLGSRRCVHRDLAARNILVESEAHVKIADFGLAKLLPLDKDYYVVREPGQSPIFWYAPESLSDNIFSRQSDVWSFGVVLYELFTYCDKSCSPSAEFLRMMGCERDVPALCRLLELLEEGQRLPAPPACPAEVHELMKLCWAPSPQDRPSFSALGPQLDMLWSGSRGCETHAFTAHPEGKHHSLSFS
Type: biochemical
Description: as §1

First: CC(C)CS(=O)(=O)N1CCCC(c2ccnc3cnc4[nH]ccc4c23)C1 (stereo not shown) [Ex. 8, 9-(1-isobutylsulfonyl-3-piperidyl)-3H-pyrrolo[3,2-f][1,7]naphthyridine]
Second: CC(C)C(=O)N1CCCC(c2ccnc3cnc4[nH]ccc4c23)C1 (stereo not shown) [Ex. 3, 2-methyl-1-[3-(3H-pyrrolo[3,2-f][1,7]naphthyridin-9-yl)-1-piperidyl]propan-1-one]
The IC50 of the first is lower: 1 to 20 nM for the first, greater than 20 nM for the second.

Compared with `O=C(C1CC1)N1CCCC(c2ccnc3cnc4[nH]ccc4c23)C1` (stereo not shown) [Ex. 2, cyclopropyl-[3-(3H-pyrrolo[3,2-f][1,7]naphthyridin-9-yl)-1-piperidyl]methanone], `O=C(CC(F)(F)F)N1CCC[C@@H](c2ccnc3cnc4[nH]ccc4c23)C1` [Ex. 4B, (S)3,3,3-trifluoro-1-[3-(3H-pyrrolo[3,2-f][1,7]naphthyridin-9-yl)-1-piperidyl]propan-1-one] is higher in IC50: 1 to 20 nM for the first, greater than 20 nM for the second. The first is the more potent here.

`CCOC(=O)c1cnc2cnc3c(ccn3S(=O)(=O)c3ccc(C)cc3)c2c1O` [Comp. 8, Ethyl 9-hydroxy-3-(p-tolylsulfonyl)pyrrolo[3,2-f][1,7]naphthyridine-8-carboxylate] and `CC(C)CS(=O)(=O)NC1CCN(c2ccnc3cnc4[nH]ccc4c23)C1` (stereo not shown) [Ex. 93, 2-methyl-N-[1-(3H-pyrrolo[3,2-f][1,7]naphthyridin-9-yl)pyrrolidin-3-yl]propane-1-sulfonamide] cannot be ordered by IC50: greater than 20 nM for the first, greater than 20 nM for the second.

`CC(C)(C)OC(=O)N1CCC(c2ccnc3cnc4[nH]ccc4c23)C1` (stereo not shown) [Comp. 50, tert-butyl 3-(3H-pyrrolo[3,2-f][1,7]naphthyridin-9-yl)pyrrolidine-1-carboxylate] and `CC(C)(C)C(=O)N1CCC(c2ncnc3cnc4[nH]ccc4c23)C1` (stereo not shown) [Ex. 38, 2,2-Dimethyl-1-[3-(3H-3,4,6,8-tetraaza-cyclopenta[a]naphthalen-9-yl)-pyrrolidin-1-yl]-propan-1-one] cannot be ordered by IC50: greater than 20 nM for the first, greater than 20 nM for the second.

`CN(C(=O)CC1CC1)C1CCCN(c2ccnc3cnc4[nH]ccc4c23)C1` (stereo not shown) [Ex. 63, 2-cyclopropyl-N-methyl-N-[1-(3H-pyrrolo[3,2-f][1,7]naphthyridin-9-yl)-3-piperidyl]acetamide] and `CN(C(=O)C1CCCC1)C1CCCN(c2ccnc3cnc4[nH]ccc4c23)C1` (stereo not shown) [Ex. 66, N-methyl-N-[1-(3H-pyrrolo[3,2-f][1,7]naphthyridin-9-yl)-3-piperidyl]cyclopentane-carboxamide] cannot be ordered by IC50: greater than 20 nM for the first, greater than 20 nM for the second.

`O=C(NC1CC1)C1CCN(c2ccnc3cnc4[nH]ccc4c23)CC1` [Ex. 76, N-cyclopropyl-1-(3H-pyrrolo[3,2-f][1,7]naphthyridin-9-yl)piperidine-4-carboxamide] and `O=C(NC1CCN(c2ccnc3cnc4[nH]ccc4c23)C1)C1CC1` (stereo not shown) [Ex. 96, N-[1-(3H-pyrrolo[3,2-f][1,7]naphthyridin-9-yl)pyrrolidin-3-yl]cyclopropanecarbox-amide] cannot be ordered by IC50: greater than 20 nM for the first, greater than 20 nM for the second.

`CS(=O)(=O)NC1CCN(c2ccnc3cnc4[nH]ccc4c23)C1` (stereo not shown) [Ex. 101, N-[1-(3H-pyrrolo[3,2-f][1,7]naphthyridin-9-yl)pyrrolidin-3-yl]methanesulfonamide] and `N#CCS(=O)(=O)NC1CCN(c2ccnc3cnc4[nH]ccc4c23)C1` (stereo not shown) [Ex. 94, 1-cyano-N-[1-(3H-pyrrolo[3,2-f][1,7]naphthyridin-9-yl)pyrrolidin-3-yl]methanesulfonamide] fall in the same range of IC50: 1 to 20 nM for the first, 1 to 20 nM for the second.

`CC(C)C(=O)NC1CCN(c2ccnc3cnc4[nH]ccc4c23)C1` (stereo not shown) [Ex. 97, 2-methyl-N-[1-(3H-pyrrolo[3,2-f][1,7]naphthyridin-9-yl)pyrrolidin-3-yl]propanamide] and `CC(C)NC(=O)NC1CCN(c2ccnc3cnc4[nH]ccc4c23)C1` (stereo not shown) [Ex. 95, 1-isopropyl-3-[1-(3H-pyrrolo[3,2-f][1,7]naphthyridin-9-yl)pyrrolidin-3-yl]urea] cannot be ordered by IC50: greater than 20 nM for the first, greater than 20 nM for the second.

`O=C(CC1CC1)NC1CCN(c2ccnc3cnc4[nH]ccc4c23)C1` (stereo not shown) [Ex. 98, 2-cyclopropyl-N-[1-(3H-pyrrolo[3,2-f][1,7]naphthyridin-9-yl)pyrrolidin-3-yl]acetamide] and `N#CCC(=O)NC1CCN(c2ccnc3cnc4[nH]ccc4c23)C1` (stereo not shown) [Ex. 99, 2-cyano-N-[1-(3H-pyrrolo[3,2-f][1,7]naphthyridin-9-yl)pyrrolidin-3-yl]acetamide] cannot be ordered by IC50: greater than 20 nM for the first, greater than 20 nM for the second.

`O=C(CCC(F)(F)F)N1CCC(c2ncnc3cnc4[nH]ccc4c23)C1` (stereo not shown) [Ex. 37, 4,4,4-Trifluoro-1-[3-(3H-3,4,6,8-tetraaza-cyclopenta[a]naphthalen-9-yl)-pyrrolidin-1-yl]-butan-1-one] and `O=C(CC(F)(F)F)N1CCC(c2ncnc3cnc4[nH]ccc4c23)C1` (stereo not shown) [Ex. 33, 3,3,3-Trifluoro-1-[3-(3H-3,4,6,8-tetraaza-cyclopenta[a]naphthalen-9-yl)-pyrrolidin-1-yl]-propan-1-one] cannot be ordered by IC50: greater than 20 nM for the first, greater than 20 nM for the second.

`O=C(C1CC1)N1CCC(c2ncnc3cnc4[nH]ccc4c23)C1` (stereo not shown) [Ex. 35, Cyclopropyl-[3-(3H-3,4,6,8-tetraaza-cyclopenta[a]naphthalen-9-yl)-pyrrolidin-1-yl]-methanone] and `CC(C)C(=O)N1CCC(c2ncnc3cnc4[nH]ccc4c23)C1` (stereo not shown) [Ex. 36, 2-Methyl-1-[3-(3H-3,4,6,8-tetraaza-cyclopenta[a]naphthalen-9-yl)-pyrrolidin-1-yl]-propan-1-one] cannot be ordered by IC50: greater than 20 nM for the first, greater than 20 nM for the second.

`N#CCC(=O)N1CCC(c2ncnc3cnc4[nH]ccc4c23)C1` (stereo not shown) [Ex. 34, 3-Oxo-3-[3-(3H-3,4,6,8-tetraaza-cyclopenta[a]naphthalen-9-yl)-pyrrolidin-1-yl]-propionitrile] and `CC(C)CS(=O)(=O)N1CCC(c2ncnc3cnc4[nH]ccc4c23)C1` (stereo not shown) [Ex. 40, 9-[1-(2-Methyl-propane-1-sulfonyl)-pyrrolidin-3-yl]-3H-3,4,6,8-tetraaza-cyclopenta[a]naphthalene] cannot be ordered by IC50: greater than 20 nM for the first, greater than 20 nM for the second.

First: O=C(CC(F)(F)F)NC1CCN(c2ccnc3cnc4[nH]ccc4c23)C1 (stereo not shown) [Ex. 100, 3,3,3-trifluoro-N-[1-(3H-pyrrolo[3,2-f][1,7]naphthyridin-9-yl)pyrrolidin-3-yl]propanamide]
Second: NC1CCN(c2ccnc3cnc4[nH]ccc4c23)C1 (stereo not shown) [Comp. 125, 1-(3H-pyrrolo[3,2-f][1,7]naphthyridin-9-yl)pyrrolidin-3-amine]
The IC50 of the first is lower: 1 to 20 nM for the first, greater than 20 nM for the second. The first is the more potent here.

`O=C(CC(F)(F)F)N1CC=C(c2ccnc3cnc4[nH]ccc4c23)C1` [Ex. 42, 3,3,3-trifluoro-1-[3-(3H-pyrrolo[3,2-f][1,7]naphthyridin-9-yl)-2,5-dihyropyrrol-1-yl]propan-1-one] and `N#CCC(=O)N1CC=C(c2ccnc3cnc4[nH]ccc4c23)C1` [Ex. 41, 3-oxo-3-[3-(3H-pyrrolo[3,2-f][1,7]naphthyridin-9-yl)-2,5-dihydropyrrolo-1-yl]propanenitrile] cannot be ordered by IC50: greater than 20 nM for the first, greater than 20 nM for the second.

`c1cc(N2CCOCC2)c2c(cnc3[nH]ccc32)n1` [Ex. 64, 4-(3H-pyrrolo[3,2-f][1,7]naphthyridin-9-yl)morpholine] and `c1cc(N2CCCC(N3CCOCC3)C2)c2c(cnc3[nH]ccc32)n1` (stereo not shown) [Ex. 70, 4-[1-(3H-pyrrolo[3,2-f][1,7]naphthyridin-9-yl)-3-piperidiyl] morpholine] cannot be ordered by IC50: greater than 20 nM for the first, greater than 20 nM for the second.

Compound `COCCNC(=O)C1CCCN(c2ccnc3cnc4[nH]ccc4c23)C1` (stereo not shown) [Ex. 69, N-(2-methoxyethyl)-1-(3H-pyrrolo[3,2-f][1,7]naphthyridin-9-yl)piperidine-3-carboxamide] has an IC50 greater than 20 nM.
